From ChEMBL document CHEMBL4411299, “A class of novel tubulin polymerization inhibitors exert effective anti-tumor activity via mitotic catastrophe” (Eur J Med Chem, 2019)
Activity calls are given as the source filed them. No cut-off for these calls is given here.

What was measured:
HeLa [1] = test: Antitumor activity against human HeLa cells xenografted in nude mouse assessed as tumor growth inhibition at 20 mg/kg, iv administered every other day up to 20 days relative to control; assay type: functional; conditions: 480 h, read-out: TGI
[2] = AUC (0 to infinity) in Sprague-Dawley rat at 1.5 mg/kg, iv administered as single dose by LC-MS/MS analysis; assay type: ADME, organism-based; set-up: dose 1.5 mg/kg, route intravenous, time infinity; conditions: in vivo
HeLa [3] = test: Induction of apoptosis in human HeLa cells assessed as necrotic cells at 0.1 uM after 24 hrs by Annexin V-FITC/propidium iodide staining-based flow cytometric analysis (reference value: 0.05%); assay type: functional
Tubulin (Homo sapiens) [4] = molecular target: T1, Tubulin (Homo sapiens) (UniProt P68371+Q9H4B7+P0DPH7+P68366+Q13509+Q71U36+P04350+Q3ZCM7+P07437+P68363+Q9BQE3+Q6PEY2+Q13885+Q9BVA1+Q9BUF5); test: Inhibition of tubulin polymerization in human HeLa cells assessed as induction of microtubule fiber breakdown at 0.02 uM after 12 hrs by DAPI staining-based confocal fluorescence microscopic analysis; assay type: cell-based
HeLa [5] = test: Induction of apoptosis in human HeLa cells assessed as early apoptotic cells at 0.05 uM after 24 hrs by Annexin V-FITC/propidium iodide staining-based flow cytometric analysis (reference value: 3.65%); assay type: functional
[6] = Half life in Sprague-Dawley rat at 1.5 mg/kg, iv administered as single dose by LC-MS/MS analysis; assay type: ADME, organism-based; conditions: in vivo
[7] = Toxicity in mouse xenografted with human HeLa cells assessed as change in spleen weight at 5 to 20 mg/kg, iv administered every other day up to 20 days; assay type: organism-based; conditions: in vivo, 480 h
[8] = Toxicity in mouse xenografted with human HeLa cells assessed as change in liver weight at 5 to 20 mg/kg, iv administered every other day up to 20 days; assay type: organism-based; conditions: in vivo, 480 h
HeLa [9] = test: Antitumor activity against human HeLa cells xenografted in nude mouse assessed as tumor weight at 5 mg/kg, iv administered every other day up to 20 days (reference value: 1.014 +/- 0.116g); assay type: functional
[10] = Half life in female Sprague-Dawley rat at 1.5 mg/kg, iv administered as single dose by LC-MS/MS analysis; assay type: ADME, organism-based; conditions: in vivo
HeLa [11] = test: Cell cycle arrest in human HeLa cells assessed as reduction in accumulation of cells at G1 phase up to 0.4 uM after 24 hrs by propidium iodide staining-based flow cytometric analysis; assay type: functional
A549 = test: Antiproliferative activity against human A549 cells after 48 hrs by MTT assay; assay type: functional; conditions: A549, 48 h
A2780 = test: Antiproliferative activity against human A2780 cells after 48 hrs by MTT assay; assay type: functional; conditions: A2780, 48 h
[12] = Apparent volume of distribution in male Sprague-Dawley rat at 1.5 mg/kg, iv administered as single dose by LC-MS/MS analysis; assay type: ADME, organism-based; conditions: in vivo, read-out: Vd(app)
[13] = AUC (0 to t) in Sprague-Dawley rat at 1.5 mg/kg, iv administered as single dose by LC-MS/MS analysis; assay type: ADME, organism-based; conditions: in vivo
[14] = AUC (0 to t) in male Sprague-Dawley rat at 1.5 mg/kg, iv administered as single dose by LC-MS/MS analysis; assay type: ADME, organism-based; conditions: in vivo
[15] = MRT (0 to t) in male Sprague-Dawley rat at 1.5 mg/kg, iv administered as single dose by LC-MS/MS analysis; assay type: ADME, organism-based; conditions: in vivo
HepG2 = test: Antiproliferative activity against human HepG2 cells after 48 hrs by MTT assay; assay type: functional; conditions: HepG2, 48 h
HeLa [16] = test: Antitumor activity against human HeLa cells xenografted in nude mouse assessed as tumor growth inhibition administered intravenously every other day up to 20 days; assay type: functional, cell-based
[17] = MRT (0 to t) in Sprague-Dawley rat at 1.5 mg/kg, iv administered as single dose by LC-MS/MS analysis; assay type: ADME, organism-based; conditions: in vivo
[18] = MRT (0 to infinity) in female Sprague-Dawley rat at 1.5 mg/kg, iv administered as single dose by LC-MS/MS analysis; assay type: ADME, organism-based; conditions: in vivo
MDA-MB-231 = test: Antiproliferative activity against human MDA-MB-231 cells after 48 hrs by MTT assay; assay type: functional; conditions: MDA-MB-231, 48 h
[19] = MRT (0 to t) in female Sprague-Dawley rat at 1.5 mg/kg, iv administered as single dose by LC-MS/MS analysis; assay type: ADME, organism-based; conditions: in vivo
[20] = AUC (0 to infinity) in male Sprague-Dawley rat at 1.5 mg/kg, iv administered as single dose by LC-MS/MS analysis; assay type: ADME, organism-based; set-up: dose 1.5 mg/kg, time infinity, route intravenous; conditions: in vivo
[21] = Apparent volume of distribution in Sprague-Dawley rat at 1.5 mg/kg, iv administered as single dose by LC-MS/MS analysis; assay type: ADME, organism-based; conditions: in vivo, read-out: Vd(app)
HeLa [22] = test: Induction of apoptosis in human HeLa cells assessed as viable cells at 0.05 uM after 24 hrs by Annexin V-FITC/propidium iodide staining-based flow cytometric analysis (reference value: 92.8%); assay type: functional; conditions: read-out: Activity
[23] = Toxicity in mouse xenografted with human HeLa cells assessed as effect on body weight at 5 to 20 mg/kg, iv administered every other day up to 20 days; assay type: organism-based; conditions: in vivo, 480 h
Tubulin (Homo sapiens) [24] = molecular target: T1, Tubulin (Homo sapiens); test: Inhibition of tubulin polymerization in human HeLa cells assessed as induction of mitotic phase arrest at 0.02 uM after 12 hrs by DAPI staining-based confocal fluorescence microscopic analysis; assay type: cell-based
[25] = MRT (0 to infinity) in Sprague-Dawley rat at 1.5 mg/kg, iv administered as single dose by LC-MS/MS analysis; assay type: ADME, organism-based; conditions: in vivo
[26] = Apparent volume of distribution in female Sprague-Dawley rat at 1.5 mg/kg, iv administered as single dose by LC-MS/MS analysis; assay type: ADME, organism-based; conditions: in vivo, read-out: Vd(app)
[27] = Clearance in Sprague-Dawley rat at 1.5 mg/kg, iv administered as single dose by LC-MS/MS analysis; assay type: ADME, organism-based; conditions: in vivo
[28] = Clearance in female Sprague-Dawley rat at 1.5 mg/kg, iv administered as single dose by LC-MS/MS analysis; assay type: ADME, organism-based; conditions: in vivo
[29] = Half life in human liver microsomes at 5 uM in presence of NADPH regenerating system by LC-MS/MS analysis; assay type: ADME, Microsome
Tubulin (Sus scrofa) = Tubulin (Sus scrofa) (UniProt P02554+P02550); test: (§1) Inhibition of porcine brain tubulin polymerization
Tubulin = Tubulin (Sus scrofa, UniProt P02554+P02550); test: as §1
[30] = Cmax in female Sprague-Dawley rat at 1.5 mg/kg, iv administered as single dose by LC-MS/MS analysis; assay type: ADME, organism-based; set-up: dose 1.5 mg/kg, route intravenous; conditions: in vivo
[31] = MRT (0 to infinity) in male Sprague-Dawley rat at 1.5 mg/kg, iv administered as single dose by LC-MS/MS analysis; assay type: ADME, organism-based; conditions: in vivo
[32] = AUC (0 to t) in female Sprague-Dawley rat at 1.5 mg/kg, iv administered as single dose by LC-MS/MS analysis; assay type: ADME, organism-based; conditions: in vivo
HeLa [33] = test: Induction of apoptosis in human HeLa cells assessed as late apoptotic cells at 0.1 uM after 24 hrs by Annexin V-FITC/propidium iodide staining-based flow cytometric analysis (reference value: 3.51%); assay type: functional

Sequence of Tubulin (Sus scrofa) (P02550 whole entry, looked up): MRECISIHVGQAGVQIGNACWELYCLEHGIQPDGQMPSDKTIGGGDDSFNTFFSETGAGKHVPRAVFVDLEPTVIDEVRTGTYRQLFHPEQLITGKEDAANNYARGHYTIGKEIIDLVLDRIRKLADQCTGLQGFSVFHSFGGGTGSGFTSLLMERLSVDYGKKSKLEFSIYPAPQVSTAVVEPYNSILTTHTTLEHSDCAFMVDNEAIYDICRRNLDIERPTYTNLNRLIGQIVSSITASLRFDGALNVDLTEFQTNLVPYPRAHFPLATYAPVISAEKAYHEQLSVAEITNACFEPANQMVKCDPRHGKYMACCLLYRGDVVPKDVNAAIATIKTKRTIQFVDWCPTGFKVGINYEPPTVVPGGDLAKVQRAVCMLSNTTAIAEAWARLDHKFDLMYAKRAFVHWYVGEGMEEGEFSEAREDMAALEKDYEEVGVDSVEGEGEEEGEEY
Sequence of Tubulin (Sus scrofa) (P02554 whole entry, looked up): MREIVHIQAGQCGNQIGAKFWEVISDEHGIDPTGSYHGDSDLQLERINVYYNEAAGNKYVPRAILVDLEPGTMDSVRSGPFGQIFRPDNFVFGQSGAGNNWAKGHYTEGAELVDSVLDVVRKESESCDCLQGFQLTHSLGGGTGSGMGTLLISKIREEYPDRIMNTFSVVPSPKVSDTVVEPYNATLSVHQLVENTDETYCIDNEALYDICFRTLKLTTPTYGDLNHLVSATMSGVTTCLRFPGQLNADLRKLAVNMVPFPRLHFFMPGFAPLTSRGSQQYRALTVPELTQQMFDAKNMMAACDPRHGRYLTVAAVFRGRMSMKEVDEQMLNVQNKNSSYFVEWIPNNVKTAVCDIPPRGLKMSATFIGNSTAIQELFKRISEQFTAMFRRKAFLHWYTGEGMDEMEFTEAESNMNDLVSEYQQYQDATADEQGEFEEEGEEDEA

## COC(=O)N1N=C(c2cccc(C)c2)CC1c1cc(OC)c(OC)c(OC)c1 (centres undefined)
HeLa [1]
  inhibition in vivo at 20 mg/kg: 72.9%
[2]
  AUC(0-inf): 0.414 µg·h/mL
HeLa [3]
  Activity: 0.829%
Tubulin (Homo sapiens) [4]
  Activity: Active
HeLa [5]
  Activity: 10.2%
[6]
  half-life: 54 min
[7]
  Activity: Non-Toxic
[8]
  Activity: Non-Toxic
HeLa [9]
  Activity: 0.812 g
[10]
  half-life: 55.8 min
HeLa [11]
  Activity: Active
A549
  GI50: 0.3 µM
A2780
  GI50: 0.6 µM
[12]
  Vd: 3.82 L/kg
[13]
  AUC(0-t): 0.397 µg·h/mL
[14]
  AUC(0-t): 0.475 µg·h/mL
[15]
  MRT last: 51 min
HepG2
  GI50: 0.98 µM
HeLa [16]
  TGI: Dose-dependent effect
[17]
  MRT last: 54.6 min
[18]
  MRT inf: 70.8 min
MDA-MB-231
  GI50: 0.14 µM
[19]
  MRT last: 57.6 min
[20]
  AUC(0-inf): 0.491 µg·h/mL
[21]
  Vd: 5.03 L/kg
HeLa [22]
  viability at 0.05 µM: 84.4%
[23]
  Activity: Non-Toxic
Tubulin (Homo sapiens) [24]
  Activity: Active
[25]
  MRT inf: 65.4 min
[26]
  Vd: 6.24 L/kg
[27]
  clearance: 3.92 L/h/kg
[28]
  clearance: 4.78 L/h/kg
[29]
  t1/2: 170.73 min
Tubulin (Sus scrofa)
  inhibition: Dose-dependent effect
Tubulin
  IC50: 1.49 µM
[30]
  Cmax: 0.531 µg/mL
[31]
  MRT inf: 60 min
[32]
  AUC(0-t): 0.319 µg·h/mL
HeLa [33]
  Activity: 6.03%
